# Source: US10758620B2, “Potentiated antimicrobial agents” (SEPTEOS, priority 2014, dated 2020)
# Where two headings read alike, the source gives them in different places.
# Assays:
# Assay type in all cases: cell-based
# [1] = test system: MSSA 8237; assay: Etest, staphylococci MSSA 8237; conditions: for MIC: Staphylococcus aureus, MSSA
# Excerpt: (§1) The corresponding tests are made based on the usual MIC test: the Etest® (Biomerieux) strip is deposited onto the surface of a seeded agar medium in which the booster has been incorporated. This test enables solvent effect risks, that is a possible interaction with the solvent used in vitro, to be minimised.
# (§2) The control corresponds to the test made without cineol. A control is made in each solvent tested: distilled water, Tween/water and DMSO.
# (§3) ED control=antibiotic alone in distilled water
# (§4) DMSO control=antibiotic alone in DMSO
# (§5) TE control=antibiotic alone in Tween® 80
# [2] = test system: Strain 10168, methicillin resistant S. aureus (MRSA); assay: Resistance test (resistant mutants), Strain 10168; conditions: MRSA, text after Table 16
# Protocol: (§6) After 48 h incubation, the presence or absence of colonies likely to be resistant mutants is observed.
# (§7) ED control or DMSO=only distilled water or DMSO is added
# (§8) Ciprofloxacine DMSO: addition of Ciprofloxacine in DMSO
# [3] = test system: MRSA 10178; assay: Etest, staphylococci MRSA 10178; conditions: MRSA 10178
# Excerpt: as §1, §2, §3, §4, §5
# [4] = test system: Strain 09003, methicillin resistant S. aureus (MRSA); assay: Resistance test (resistant mutants), Strain 09003; conditions: MRSA, text after Table 15
# Protocol: as §6, §7, §8
# [5] = test system: E. Coli Strain 08138; assay: Etest, E. Coli Strain 08138; conditions: for MIC: Escherichia coli, read-out: MIC of Pipera tazo, Strain 08138; for MIC of Cefoxitine / MIC of Tigecycline: Strain 08138
# Excerpt: as §1, §2, §3, §4, §5
# [6] = test system: Escherichia coli; assay: MIC measurement in agar medium (dilution test), Coli; conditions: potentiator alone
# Excerpt: Inhibitory minimum concentration measurement tests are made in a solid agar medium according to international standards in force (CLSI M7-A9 Jan 12 standards): dispersion of the compounds to be tested in a Mueller Hinton gelose. An adaptation relating to the hydrophobicity of compounds and compositions is however necessary to disperse them in the medium: dilution of the compounds in a solvent. The compounds and compositions incorporated in the agar medium can be diluted beforehand in one or more solvents (Tween® 80 diluted with water, Tween® 80 diluted with […], DMSO diluted with water). The strains are deposited onto the agar surface with a steers apparatus. In the examples, different dissolution methods for products are tested in parallel to circumvent the problems of water/solvent distribution coefficient of the molecules (antimicrobial and potentiator) whereas the bacteria grow only in the aqueous phase. The technical requirement will not intervene in in vivo tests. The same dilution methods can be implemented in a liquid medium (microplates and tubes). The same methodology is implemented with fungi. […] MIC measurement: the minimum inhibitory concentration measurement tests are made in an agar solid medium according to international standards in force (CLSI standards), according to the previously defined protocol. […] The booster contribution as compared with the MIC of the antibiotic alone is expressed in a (MIC ATB)/(MIC ATB+booster) ratio. Thereby, gains are defined: […]
# [7] = test system: E. Coli Strain 8150; assay: Etest, E. Coli Strain 8150; conditions: for MIC: Escherichia coli, read-out: MIC of Pipera tazo, Strain 8150; for MIC of Meropenem / MIC of Tigecycline / MIC of Pipera tazo: Strain 8150
# Excerpt: as §1, §2, §3, §4, §5
# [8] = test system: methicillin resistant S. aureus (MRSA) strains 09003, 10168; assay: MIC of the potentiator used alone on the strains of Examples 3 and 4; conditions: Staphylococcus aureus, on these strains
# [9] = MSSA 8237, booster 1 mg/L in agar, DMSO
# [10] = MSSA 8237, booster 1 mg/L in agar, Tween/water
# [11] = MSSA 8237, booster 4 mg/L in agar, DMSO
# [12] = MSSA 8237, booster 4 mg/L in agar, Tween/water
# [13] = MSSA 8237, booster 16 mg/L in agar, DMSO
# [14] = MSSA 8237, booster 16 mg/L in agar, Tween/water
# [15] = booster 1 mg/L in agar, Tween/water
# [16] = booster 4 mg/L in agar, Tween/water
# [17] = booster 16 mg/L in agar, Tween/water
smiles,measurement,setting,value
"CC(=O)OCC=Cc1ccccc1 [AC, cinnamyl acetate]",MIC of Cefoxitine,[1]; [9],2 µg/mL
same,MIC of Meropenem,[1]; [9],0.25 µg/mL
same,MIC of Penicillin G,[1]; [9],0.25 µg/mL
same,MIC of Cefoxitine,[1]; [10],3 µg/mL
same,MIC of Meropenem,[1]; [10],0.25 µg/mL
same,MIC of Penicillin G,[1]; [10],0.5 µg/mL
same,MIC of Cefoxitine,[1]; [11],3 µg/mL
same,MIC of Meropenem,[1]; [11],0.19 µg/mL
same,MIC of Penicillin G,[1]; [11],0.19 µg/mL
same,MIC of Cefoxitine,[1]; [12],2 µg/mL
same,MIC of Meropenem,[1]; [12],0.19 µg/mL
same,MIC of Penicillin G,[1]; [12],0.125 µg/mL
same,MIC of Cefoxitine,[1]; [13],<0.016 µg/mL
same,MIC of Meropenem,[1]; [13],<0.002 µg/mL
same,MIC of Penicillin G,[1]; [13],<0.002 µg/mL
same,MIC of Cefoxitine,[1]; [14],1.5 µg/mL
same,MIC of Meropenem,[1]; [14],0.064 µg/mL
same,MIC of Penicillin G,[1]; [14],0.064 µg/mL
same,MIC,"[1]; MSSA 8237, booster 1 mg/L in agar, DMSO, read-out: MIC of Clindamycine",0.047 µg/mL
same,MIC,"[1]; MSSA 8237, booster 1 mg/L in agar, Tween/water, read-out: MIC of Clindamycine",0.047 µg/mL
same,MIC,"[1]; MSSA 8237, booster 4 mg/L in agar, DMSO, read-out: MIC of Clindamycine",0.047 µg/mL
same,MIC,"[1]; MSSA 8237, booster 4 mg/L in agar, Tween/water, read-out: MIC of Clindamycine",0.064 µg/mL
same,MIC,"[1]; MSSA 8237, booster 16 mg/L in agar, DMSO, read-out: MIC of Clindamycine",< 0.016 µg/mL
same,MIC,"[1]; MSSA 8237, booster 16 mg/L in agar, Tween/water, read-out: MIC of Clindamycine",0.125 µg/mL
same,MIC,"[1]; read-out: MIC of Pipera tazo, MSSA 8237, booster 1 mg/L in agar, DMSO",0.75 µg/mL
same,MIC,"[1]; read-out: MIC of Pipera tazo, MSSA 8237, booster 1 mg/L in agar, Tween/water",1 µg/mL
same,MIC,"[1]; read-out: MIC of Pipera tazo, MSSA 8237, booster 4 mg/L in agar, DMSO",0.5 µg/mL
same,MIC,"[1]; read-out: MIC of Pipera tazo, MSSA 8237, booster 4 mg/L in agar, Tween/water",0.5 µg/mL
same,MIC,"[1]; read-out: MIC of Pipera tazo, MSSA 8237, booster 16 mg/L in agar, Tween/water",0.38 µg/mL
same,occurrence of mutants on addition of the compound to ciprofloxacine,[2],does not cause the occurrence of mutants any longer
same,MIC of Cefoxitine,"[3]; booster 1 mg/L in agar, DMSO",4 µg/mL
same,MIC of Tigecycline,"[3]; booster 1 mg/L in agar, DMSO",0.125 µg/mL
same,MIC of Cefoxitine,[3]; [15],4 µg/mL
same,MIC of Tigecycline,[3]; [15],0.125 µg/mL
same,MIC of Cefoxitine,"[3]; booster 4 mg/L in agar, DMSO",1 µg/mL
same,MIC of Tigecycline,"[3]; booster 4 mg/L in agar, DMSO",0.047 µg/mL
same,MIC of Cefoxitine,[3]; [16],0.75 µg/mL
same,MIC of Tigecycline,[3]; [16],0.047 µg/mL
same,MIC of Cefoxitine,"[3]; booster 16 mg/L in agar, DMSO",<0.016 µg/mL
same,MIC of Tigecycline,"[3]; booster 16 mg/L in agar, DMSO",<0.016 µg/mL
same,MIC of Cefoxitine,[3]; [17],<0.016 µg/mL
same,MIC of Tigecycline,[3]; [17],<0.016 µg/mL
same,occurrence of mutants on addition of the compound to ciprofloxacine,[4],does not cause the occurrence of mutants any longer
same,MIC,"[5]; booster 1 mg/L in agar, DMSO",6 µg/mL
same,MIC,[5]; [15],2 µg/mL
same,MIC,"[5]; booster 4 mg/L in agar, DMSO",4 µg/mL
same,MIC,[5]; [16],2 µg/mL
same,MIC,"[5]; booster 16 mg/L in agar, DMSO",8 µg/mL
same,MIC,[5]; [17],2 µg/mL
same,MIC of Cefoxitine,"[5]; booster 1 mg/L in agar, DMSO",2 µg/mL
same,MIC of Tigecycline,"[5]; booster 1 mg/L in agar, DMSO",0.38 µg/mL
same,MIC of Cefoxitine,[5]; [15],2 µg/mL
same,MIC of Tigecycline,[5]; [15],0.25 µg/mL
same,MIC of Cefoxitine,"[5]; booster 4 mg/L in agar, DMSO",1.5 µg/mL
same,MIC of Tigecycline,"[5]; booster 4 mg/L in agar, DMSO",0.38 µg/mL
same,MIC of Cefoxitine,[5]; [16],1.5 µg/mL
same,MIC of Tigecycline,[5]; [16],0.19 µg/mL
same,MIC of Cefoxitine,"[5]; booster 16 mg/L in agar, DMSO",0.5 µg/mL
same,MIC of Tigecycline,"[5]; booster 16 mg/L in agar, DMSO",0.125 µg/mL
same,MIC of Cefoxitine,[5]; [17],4 µg/mL
same,MIC of Tigecycline,[5]; [17],0.19 µg/mL
same,MIC 50,[6]; solvent DMSO,1.00%
same,MIC 90,[6]; solvent DMSO,1.00%
same,MIC 50,[6]; solvent Tween/prop glyc,>1%
same,MIC 90,[6]; solvent Tween/prop glyc,>1%
same,MIC 50,[6]; solvent Tween/water,>1%
same,MIC 90,[6]; solvent Tween/water,>1%
same,MIC 50,[6]; solvent water/water,>1%
same,MIC 90,[6]; solvent water/water,>1%
same,MIC,"[7]; booster 1 mg/L in agar, DMSO",0.75 µg/mL
same,MIC,[7]; [15],0.5 µg/mL
same,MIC of Meropenem,"[7]; booster 1 mg/L in agar, DMSO",0.023 µg/mL
same,MIC of Tigecycline,"[7]; booster 1 mg/L in agar, DMSO",0.064 µg/mL
same,MIC of Meropenem,[7]; [15],0.016 µg/mL
same,MIC of Tigecycline,[7]; [15],0.064 µg/mL
same,MIC of Meropenem,"[7]; booster 4 mg/L in agar, DMSO",<
same,MIC of Pipera tazo,"[7]; booster 4 mg/L in agar, DMSO",<
same,MIC of Tigecycline,"[7]; booster 4 mg/L in agar, DMSO",<
same,MIC of Meropenem,[7]; [16],<
same,MIC of Pipera tazo,[7]; [16],<
same,MIC of Tigecycline,[7]; [16],<
same,MIC of Meropenem,"[7]; booster 16 mg/L in agar, DMSO",<
same,MIC of Pipera tazo,"[7]; booster 16 mg/L in agar, DMSO",<
same,MIC of Tigecycline,"[7]; booster 16 mg/L in agar, DMSO",<
same,MIC of Meropenem,[7]; [17],<
same,MIC of Pipera tazo,[7]; [17],<
same,MIC of Tigecycline,[7]; [17],<
same,MIC,[8],> 10000 µg/mL
